The nature of the series: UV-Vis absorbance spectrum. Format: physicochemical. The text has this: How might optovin activate TRPA1? When molecules absorb light, photons can excite electrons from their ground state to a […] via intersystem crossing^37. These photoactivated compounds can then undergo reactions by transferring energy or electrons to target molecules, including aqueous molecular oxygen. Optovin is a yellow-colored compound with peak absorbance at 415 nm (FIG. 4A). To determine if optovin is photochemically reactive, it was exposed to increasing intensities of 415 nm light and assayed for reactive oxygen species (ROS) generation.
Assay for singlet oxygen generation using singlet oxygen sensor green (SOSG) UV-vis absorption spectra were recorded at 20 uM in methanol using an Evolution 300 UV-Vis Spectrophotometer (Thermo Fisher Scientific Inc., Waltham, Mass.). 96-well black-sided plates were used for fluorescent probe experiments. […] An Omnilux Clear-U LED light source (Photo Therapeutics Inc), Carlsbad, Calif.) that emits blue light 415-nm+15-nm as a homogeneous spot with an irradiance of 50 mW/cm^2 measured with a power meter (model DMM 199 with 201 standard head; Coherent, Santa Clara, Calif.) that covers an area of one half of a 96-well plate.

Turning to `Cc1cc(/C=C2/SC(=S)NC2=O)c(C)n1-c1cccnc1` [optovin], the peak absorbance was 415 nm.

The values are drawn from patent publication US9486447B2, “Compositions and methods for controlling neuronal excitation” (The General Hospital Corporation, priority 2011, dated 2016).
